Results from patent EP0970697A1, “CERVICAL MATURING AGENT” (TORAY INDUSTRIES, INC., priority 1997, dated 1999).
Where two headings read alike, the source gives them in different places.

Legend:
cervical canal [1] = test: Cervical ripening action (maximum tension and slope in extension of the extracted cervical canal after intravaginal administration); type: in vivo, Hartley mature guinea pigs; details: 10µg, intravaginal administration three times, cervical canal extracted 4 hours after final administration; maximum tension and slope compared with the base administration group, Dunnett's method
Method: The cervical ripening actions of compounds of formula (I) were examined by using Hartley mature guinea pigs (nine-week-old, clean animals).
In order to compare with these compounds, the action of BPS was also tested. Experiment was carried out for 4 to 14 samples per group.
In the test, 100 µl of a test medicine or a base thereof was administered to the vagina at 9 o'clock and 17 o'clock, and 9 o'clock on the next day, and a guinea pig was dissected to extract the cervical canal 4 hours after the final administration. Then, the cervical canal was extended at a rate of 2 mm/min to measure tension generated in the tissue with time. As an index for cervical ripening, the maximum tension generated up to breakage of the tissue, and the slope obtained by dividing the maximum tension by the distance of extension were examined. It is thought that decreases in these values indicate ripening of the cervical canal. A test medicine was dissolved in phosphate buffered saline, and then mixed with 3% hydroxypropyl cellulose.
Figs. 1 and 2 show changes in the maximum tension and the slope, respectively, caused by the test medicines. (*: P < 0.05, **: P < 0.01, Dunnett's method, comparison with the base administration group).

cervical canal [2] = details: mice; high dosage of 100 µg to 200 µg (about 2 to 4 mg per kg of weight) required; cited from earlier work

O=C(O)CCc1cccc2c1O[C@H]1C[C@@H](O)[C@H](/C=C/[C@@H](O)CC3CCCCC3)[C@@H]21 [Compound-3]
cervical ripening action (cervical canal [1]): significant cervical ripening action

O=C(O)COc1cccc2c1OC1CC(O)C(C=CC(O)C3CCCC3)C21 (centres unmarked) [Compound-1]
cervical ripening action (cervical canal [1]): significant cervical ripening action

CC#CCC(C)[C@H](O)/C=C/[C@@H]1[C@H]2c3cccc(CCCC(=O)O)c3O[C@H]2C[C@H]1O (mixture of isomers) [BPS, beraprost sodium, reference compound]
cervical ripening action (cervical canal [2]): exhibits a cervical ripening action
cervical ripening action (cervical canal [1]): no cervical ripening action

O=C(O)COc1cccc2c1OC1CC(O)C(C=CC(O)C3CCCCC3)C21 (centres unmarked) [Compound-2]
cervical ripening action (cervical canal [1]): significant cervical ripening action
